Laboratory results as given in patent US11998523B2, “Ascorbic acid and quinone compounds for treating Chagas disease” (IC-MedTech Corp., priority 2016, dated 2024).
pEC50, pIC50: −log10 of the molar value. Like-named read-outs stand apart in the source and are kept apart here.

Experiments:
Assay type in all cases: cell-based
[1] = test system: parasitic forms of Trypanosoma cruzi; assay: Total ROS production (H2DCFDA labeling); conditions: H2O2 20.0 μM
Protocol: FIGS. 2A, 2B, and 2C show the effects of VC and VK3 on the total reactive oxygen species (ROS) production in parasitic forms of Trypanosoma cruzi, where the parasites were treated with VC and VK3, alone and combined, for 24 hrs using H2DCFDA labeling; and where epimastigote forms (FIG. 2A) were treated with 0.61 mM VC and 1.90 μM VK3, alone and combined; trypomastigote forms (FIG. 2B) were treated with 0.20 mM VC and 0.35 μM VK3, alone and combined; and amastigote forms (FIG. 2C) were treated with 0.18 mM VC and 0.30 μM VK3, alone and combined. H2O2 was used as a positive control. Total ROS were measured as an increase in fluorescence that is caused by the conversion of nonfluorescent dye to fluorescent DCF. The results are expressed as the mean fluorescence (in arbitrary units [A.U.]±SE) of at least three independent experiments. The symbol * indicates significant differences compared with the control group (untreated cells; p≤0.05). The production of total reactive oxygen species (total ROS) was evaluated in parasitic forms after exposure to VC and VK3 using the probe H2DCFDA. Epimastigote forms (1×10^6 parasites/mL) were evaluated after exposure to 0.61 mM VC and 1.90 μM VK3, alone and in combination, for 24 hrs at 28° C. Trypomastigote forms (1×10^7 parasites/mL) were evaluated after exposure to 0.20 mM VC and 0.35 μM VK3, alone and in combination, for 24 hrs at 37° C. in a 5% CO2 atmosphere. Amastigote forms (1×10^7 parasites/mL) were evaluated after exposure to 0.18 mM VC and 0.30 μM VK3, alone and in combination, for 24 hrs at 37° C. in a 5% CO2 atmosphere. Hydrogen peroxide (H2O2; 20.0 μM) was used as a positive control. Afterward, the parasites were centrifuged, washed, and resuspended in PBS. Parasites were loaded with 10.0 μM of the permeant probe H2DCFDA in the dark for 45 min.

[2] = test system: Trypomastigote forms of T. cruzi (Y strain); assay: Trypanocidal effect on trypomastigote forms (viability by mobility, Pizzi-Brener method, Combination Index method); conditions: Trypanosoma cruzi
Protocol: All of the experiments were performed using the Y strain of T. cruzi. Pereira et al., Folia Clin. Biol. 1953, 20, 191-208. Epimastigote forms were axenically maintained at 28° C. with weekly transfers in liver infusion tryptose (LIT) medium supplemented with 10% heat-inactivated FBS, pH 7.4. Camargo, Rev. Inst. Med. Trop. São Paulo. 1964, 6, 93-100. Trypomastigote and amastigote forms were obtained from the previously infected monolayers of LLCMK2 cells (epithelial cells of monkey kidney [Macaca mulatta]; CCL-7; American Type Culture Collection, Rockville, MD, USA) in DMEM supplemented with 2 mM L-glutamine and 10% FBS, buffered with sodium bicarbonate in a 5% CO2 air mixture at 37° C. […] After incubation, the viability of the parasites was determined by examining mobility under a light microscope (Olympus CX31) using the Pizzi-Brener method. […] The data were calculated and mathematically expressed as a Combination Index: CI=(IC50 VK3 combined/IC50 VK3 alone)+(IC50 VC combined/IC50 VC alone) for epimastigotes and amastigotes and CI=(EC50 VK3 combined/EC50 VK3 alone)+(EC50 VC combined/EC50 VC alone) for trypomastigotes. […] The data were also graphically expressed as isobolograms by plotting concentrations of vitamins that alone or in combination induced activity against 50% of the forms of the parasite.

[3] = test system: intracellular amastigote forms of T. cruzi (Y strain) in LLCMK2 cells; assay: Activity against intracellular amastigote forms in LLCMK2 cells (survival index, Combination Index method); conditions: Trypanosoma cruzi
Protocol: All of the experiments were performed using the Y strain of T. cruzi. Pereira et al., Folia Clin. Biol. 1953, 20, 191-208. Epimastigote forms were axenically maintained at 28° C. with weekly transfers in liver infusion tryptose (LIT) medium supplemented with 10% heat-inactivated FBS, pH 7.4. Camargo, Rev. Inst. Med. Trop. São Paulo. 1964, 6, 93-100. Trypomastigote and amastigote forms were obtained from the previously infected monolayers of LLCMK2 cells (epithelial cells of monkey kidney [Macaca mulatta]; CCL-7; American Type Culture Collection, Rockville, MD, USA) in DMEM supplemented with 2 mM L-glutamine and 10% FBS, buffered with sodium bicarbonate in a 5% CO2 air mixture at 37° C. […] The number of infected cells and amastigotes was determined by randomly counting 200 cells. The results were calculated as the survival index, which was obtained by multiplying the percentage of infected cells by the number of amastigotes per infected LLCMK2 cell and then determining the percentage of inhibition. […] The data were calculated and mathematically expressed as a Combination Index: CI=(IC50 VK3 combined/IC50 VK3 alone)+(IC50 VC combined/IC50 VC alone) for epimastigotes and amastigotes and CI=(EC50 VK3 combined/EC50 VK3 alone)+(EC50 VC combined/EC50 VC alone) for trypomastigotes. […]

[4] = test system: Epimastigote forms of T. cruzi (Y strain); assay: Trypanocidal effect on epimastigote forms (counting in Neubauer hemocytometer, Combination Index method); conditions: Trypanosoma cruzi
Protocol: All of the experiments were performed using the Y strain of T. cruzi. Pereira et al., Folia Clin. Biol. 1953, 20, 191-208. Epimastigote forms were axenically maintained at 28° C. with weekly transfers in liver infusion tryptose (LIT) medium supplemented with 10% heat-inactivated FBS, pH 7.4. Camargo, Rev. Inst. Med. Trop. São Paulo. 1964, 6, 93-100. Trypomastigote and amastigote forms were obtained from the previously infected monolayers of LLCMK2 cells (epithelial cells of monkey kidney [Macaca mulatta]; CCL-7; American Type Culture Collection, Rockville, MD, USA) in DMEM supplemented with 2 mM L-glutamine and 10% FBS, buffered with sodium bicarbonate in a 5% CO2 air mixture at 37° C. […] The number of epimastigote forms was determined by counting in a Neubauer hemocytometer after 96 hrs. The data were calculated and mathematically expressed as a Combination Index: CI=(IC50 VK3 combined/IC50 VK3 alone)+(IC50 VC combined/IC50 VC alone) for epimastigotes and amastigotes and CI=(EC50 VK3 combined/EC50 VK3 alone)+(EC50 VC combined/EC50 VC alone) for trypomastigotes. […] The data were also graphically expressed as isobolograms by plotting concentrations of vitamins that alone or in combination induced activity against 50% of the forms of the parasite.

How did the “increase in ROS production (positive control)” value (from here on “increase in ROS production”) ([1]; amastigotes) turn out when `OO` [H2O2, Hydrogen peroxide] was run?
The value was 60%.

What about the “increase in ROS production” value ([1]; epimastigotes) of the same compound?
The value was 69%.

What about the “increase in ROS production” value ([1]; trypomastigotes) of the same compound?
Its value is 77%.

Which results are given for `O=C1O[C@H]([C@@H](O)CO)C(O)=C1O` [VC, L-ascorbic acid]?
pEC50 ([2]; combined with 0.35 μM VK3, read-out: VC concentration in the combination with synergistic effect on 50% of the parasites (EC50 VC combined)): 3.70; pIC50 ([3]; LLC-MK2, combined with 0.30 μM VK3, read-out: VC concentration in the combination with synergistic effect on 50% of the parasites (IC50 VC combined)): 3.74; pIC50 ([4]; combined with 1.90 μM VK3, read-out: VC concentration in the combination with synergistic effect on 50% of the parasites (IC50 VC combined)): 3.21

`CC1=CC(=O)c2ccccc2C1=O` [VK3, 2-methyl-1,4-naphthalenedione] was tested. Which pEC50 ([2]; combined with 0.20 mM VC, read-out: VK3 concentration in the combination with synergistic effect on 50% of the parasites (EC50 VK3 combined)) did it give?
The pEC50 was 6.46.

And the pIC50 ([3]; LLC-MK2, combined with 0.18 mM VC, read-out: VK3 concentration in the combination with synergistic effect on 50% of the parasites (IC50 VK3 combined))?
Its pIC50 is 6.52.

And the pIC50 ([4]; .61 mM VC, read-out: VK3 concentration in the combination with synergistic effect on 50% of the parasites (IC50 VK3 combined))?
Its pIC50 is 5.72.
